Laboratory results reported in patent US20100190735A1, “Mouthwash and Method of Using Same for the Treatment of Mucositis or Stomatitis” (priority 2006, published 2010).
Where a name gives a salt, the structure may show the parent alone. Read-outs that look alike come from different tables or passages of the source.

Assays:
[1] = in H2O, cited from earlier work
[2] = Storage stability of mouth rinse formulation B8: potency of the actives by HPLC; assay type: physicochemical
Text: (§1) Quantification of the respective ingredients was done using high performance liquid chromatography (HPLC). A difference in calculated quantity of less than 5% from the intial formulation (i.e. time=0) amount was considered a “pass”, that is, indicative of minimal degradation. The relative standard deviation for the HPLC calculations was 3%.

[3] = Storage stability of formulation B8: preservative assay by HPLC; assay type: physicochemical
Text: as §1

[4] = formulation B8, 2 months at 40° C.
[5] = formulation B8, 2 months at 40° C., 90 to 110% of label claim, less than 5% change
[6] = formulation B8, 2 months at room temperature
[7] = formulation B8, 2 months at room temperature, 90 to 110% of label claim, less than 5% change
[8] = formulation B8, 3 months at 40° C.
[9] = formulation B8, 3 months at 40° C., 90 to 110% of label claim, less than 5% change
[10] = formulation B8, 3 months at room temperature
[11] = formulation B8, 3 months at room temperature, 90 to 110% of label claim, less than 5% change
[12] = formulation B8, 4 months at 40° C.
[13] = formulation B8, 4 months at 40° C., 90 to 110% of label claim, less than 5% change
[14] = formulation B8, 4 months at room temperature, 90 to 110% of label claim, less than 5% change
[15] = formulation B8, 12 months at fridge 4° C.
[16] = formulation B8, 12 months at fridge 4° C., 90 to 110% of label claim, less than 5% change
[17] = formulation B8, 12 months at room temperature
[18] = formulation B8, 12 months at room temperature, 90 to 110% of label claim, less than 5% change
[19] = formulation B8, time = 0, limits 90 to 110% of label claim

| SMILES | Preservative assay [3, 4] [%] | Preservative assay [3, 6] [%] | Solubility (Notes) ([1]; in words) | Potency (of label claim) [2, 4] [%] | Potency Pass/fail [2, 5] | Potency (of label claim) [2, 6] [%] | Potency Pass/fail [2, 7] | Potency (of label claim) [2, 8] [%] | Potency Pass/fail [2, 9] | Potency (of label claim) [2, 10] [%] | Potency Pass/fail [2, 11] | Potency (of label claim) [2, 12] [%] | Potency Pass/fail [2, 13] | Potency Pass/fail [2, 14] | Potency (of label claim) [2, 15] [%] | Potency Pass/fail [2, 16] | Potency (of label claim) [2, 17] [%] | Potency Pass/fail [2, 18] | Potency (of label claim) ([2]; formulation B8, time = 0) [%] | Potency Pass/fail [2, 19] | also measured |
| --- | --- | --- | --- | --- | --- | --- | --- | --- | --- | --- | --- | --- | --- | --- | --- | --- | --- | --- | --- | --- | --- |
| C[C@@H]1C[C@H]2[C@@H]3CCC4=CC(=O)C=C[C@]4(C)[C@@]3(F)[C@@H](O)C[C@]2(C)[C@@]1(O)C(=O)COP(=O)(O)O [Dexamethasone sodium phosphate, Dexamethasone 21-phosphate disodium salt] | – | – | H2O soluble | – | – | – | – | – | – | – | – | – | – | – | – | – | – | – | – | – | – |
| CN(C)CCOC(c1ccccc1)c1ccccc1 [Diphenhydramine HCl] | – | – | – | 100.2 | Pass (A difference in calculated quantity of less than 5% from the intial formulation (i.e. time=0) amount was considered a “pass”) | 100.8 | Pass (A difference in calculated quantity of less than 5% from the intial formulation (i.e. time=0) amount was considered a “pass”) | 101.7 | Pass (A difference in calculated quantity of less than 5% from the intial formulation (i.e. time=0) amount was considered a “pass”) | 101.85 | Pass (A difference in calculated quantity of less than 5% from the intial formulation (i.e. time=0) amount was considered a “pass”) | 100.1 | Pass (A difference in calculated quantity of less than 5% from the intial formulation (i.e. time=0) amount was considered a “pass”) | Pass (A difference in calculated quantity of less than 5% from the intial formulation (i.e. time=0) amount was considered a “pass”) | 102.4 | Pass (A difference in calculated quantity of less than 5% from the intial formulation (i.e. time=0) amount was considered a “pass”) | 103.0 | Pass (A difference in calculated quantity of less than 5% from the intial formulation (i.e. time=0) amount was considered a “pass”) | 100.6 | Pass (A difference in calculated quantity of less than 5% from the intial formulation (i.e. time=0) amount was considered a “pass”) | – |
| CCN(CC)CC(=O)Nc1c(C)cccc1C [Lidocaine HCl] | – | – | – | 98.1 | Pass (A difference in calculated quantity of less than 5% from the intial formulation (i.e. time=0) amount was considered a “pass”) | 99.7 | Pass (A difference in calculated quantity of less than 5% from the intial formulation (i.e. time=0) amount was considered a “pass”) | 102.15 | Pass (A difference in calculated quantity of less than 5% from the intial formulation (i.e. time=0) amount was considered a “pass”) | 101.8 | Pass (A difference in calculated quantity of less than 5% from the intial formulation (i.e. time=0) amount was considered a “pass”) | 102.9 | Pass (A difference in calculated quantity of less than 5% from the intial formulation (i.e. time=0) amount was considered a “pass”) | Pass (A difference in calculated quantity of less than 5% from the intial formulation (i.e. time=0) amount was considered a “pass”) | 101.4 | Pass (A difference in calculated quantity of less than 5% from the intial formulation (i.e. time=0) amount was considered a “pass”) | 101.4 | Pass (A difference in calculated quantity of less than 5% from the intial formulation (i.e. time=0) amount was considered a “pass”) | 100.4 | Pass (A difference in calculated quantity of less than 5% from the intial formulation (i.e. time=0) amount was considered a “pass”) | – |
| C[C@@H]1[C@H](O)[C@@H](C)/C=C/C=C/CC/C=C/C=C/C=C/C=C/C(O[C@H]2O[C@H](C)[C@@H](O)[C@H](N)[C@@H]2O)CC2O[C@](O)(CC(O)C(O)CCC(O)CC(O)CC(O)CC(=O)O[C@H]1C)CC(O)C2C(=O)O (stereo partly drawn) [Nystatin] | – | – | slightly soluble- | 98.4 | Fail | 106.8 | Pass (A difference in calculated quantity of less than 5% from the intial formulation (i.e. time=0) amount was considered a “pass”) | 88.8 | Fail | 106 | Pass (A difference in calculated quantity of less than 5% from the intial formulation (i.e. time=0) amount was considered a “pass”) | 92.4 | Fail | Pass (A difference in calculated quantity of less than 5% from the intial formulation (i.e. time=0) amount was considered a “pass”) | 101.7 | Pass (A difference in calculated quantity of less than 5% from the intial formulation (i.e. time=0) amount was considered a “pass”) | 109.6 | Pass (A difference in calculated quantity of less than 5% from the intial formulation (i.e. time=0) amount was considered a “pass”) | 108.5 | Pass (A difference in calculated quantity of less than 5% from the intial formulation (i.e. time=0) amount was considered a “pass”) | Potency (of label claim) ([2]; formulation B8, 4 months at room temperature): 105.3%; Solubility (Notes) [1]: 4 mg/ml in H2O |

Now from value to compound, other results behind:

| Preservative assay [3, 4] [%] | Preservative assay [3, 6] [%] | SMILES | Solubility (Notes) ([1]; in words) | Potency (of label claim) [2, 4] [%] | Potency Pass/fail [2, 5] | Potency (of label claim) [2, 6] [%] | Potency Pass/fail [2, 7] | Potency (of label claim) [2, 8] [%] | Potency Pass/fail [2, 9] | Potency (of label claim) [2, 10] [%] | Potency Pass/fail [2, 11] | Potency (of label claim) [2, 12] [%] | Potency Pass/fail [2, 13] | Potency Pass/fail [2, 14] | Potency (of label claim) [2, 15] [%] | Potency Pass/fail [2, 16] | Potency (of label claim) [2, 17] [%] | Potency Pass/fail [2, 18] | Potency (of label claim) ([2]; formulation B8, time = 0) [%] | Potency Pass/fail [2, 19] | also measured |
| --- | --- | --- | --- | --- | --- | --- | --- | --- | --- | --- | --- | --- | --- | --- | --- | --- | --- | --- | --- | --- | --- |
| 95 | 97.6 | COC(=O)c1ccc(O)cc1 [Methyl paraben] | – | – | – | – | – | – | – | – | – | – | – | – | – | – | – | – | – | – | Preservative assay [3, 8]: 95.7%; Preservative assay [3, 10]: 100.1%; Preservative assay [3, 12]: 97.1%; Preservative assay [3, 17]: Methyl P - 98.2%; Preservative assay ([3]; formulation B8, time = 0): paraben: 100.8% |
| 99.1 | 99.3 | CCCOC(=O)c1ccc(O)cc1 [Propyl paraben] | – | – | – | – | – | – | – | – | – | – | – | – | – | – | – | – | – | – | Preservative assay [3, 8]: 99.4%; Preservative assay [3, 10]: 100.4%; Preservative assay [3, 12]: 99.2%; Preservative assay [3, 17]: Propul P - 99.1%; Preservative assay ([3]; formulation B8, time = 0): paraben: 99.1% |
